Data on 13 compounds can be found in patent US20250100994A1, “CDK12/13 COVALENT INHIBITORS OR PHARMACEUTICAL COMPOSITION THEREOF, AND USES THEREOF” (The Regents of the University of Michigan, priority 2023, published 2025).

Structures are written as SMILES. Where two headings read alike, the source gives them in different places. Where only a bound is given, the exact number is not on record here.

The term IC50 denotes the concentration that gives 50% inhibition.

Assay [1] deals with CDK12 (Homo sapiens (Human), UniProt Q9NYV4). The assay is described as follows: LANCE Ultra kinase assay, CDK12. It is filed as biochemical. The procedure: (§1) The inhibitory activities of the test compound on the kinases were evaluated by LANCE Ultra assay, which was used for detecting ATP-dependent phosphorylation of a ULight-4E-BP1 (Thr37/Thr46) substrate peptide (150 nM). In short, enzymatic reactions were performed in a reaction buffer (25 mM HEPES (pH 7.5), 10 mM MgCl2, 0.01% BSA, 0.01% Tween 20, and 1 mM DTT). The assay was performed in a 384-well plate (6 μL). A final concentration of an ATP substrate was […], and a final concentration of the ULight-4E-BP1 (Thr37/Thr46) substrate peptide was 150 nM. A final concentration of CDK9, CDK12, or CDK13 was 0.3, 30, or 30 nM, respectively. Pre-incubation of the compound and the enzyme was performed at room temperature for 60 min. The reaction was stopped by adding 10 mM EDTA and 0.15 nM Eu-labeled anti-phospho-eIF4E-binding protein 1 (Thr37/46) antibody in LANCE detection buffer after incubation at room temperature for 15, 60, or 90 min. Time-resolved fluorescence (excitation, 320 nm; emission donor, 615 nm; emission acceptor, 665 nm) was monitored using an EnVision spectrophotometer (PerkinElmer). Readings were computed as (acceptor count/donor count)×1000. IC50 values were derived by fitting a sigmoidal dose-response curve to a plot of assay readouts of inhibitor concentrations. All fittings were computed using program Prism 5.03 (GraphPad Software, San Diego, CA).
CDK12, sequence (Q9NYV4 whole entry): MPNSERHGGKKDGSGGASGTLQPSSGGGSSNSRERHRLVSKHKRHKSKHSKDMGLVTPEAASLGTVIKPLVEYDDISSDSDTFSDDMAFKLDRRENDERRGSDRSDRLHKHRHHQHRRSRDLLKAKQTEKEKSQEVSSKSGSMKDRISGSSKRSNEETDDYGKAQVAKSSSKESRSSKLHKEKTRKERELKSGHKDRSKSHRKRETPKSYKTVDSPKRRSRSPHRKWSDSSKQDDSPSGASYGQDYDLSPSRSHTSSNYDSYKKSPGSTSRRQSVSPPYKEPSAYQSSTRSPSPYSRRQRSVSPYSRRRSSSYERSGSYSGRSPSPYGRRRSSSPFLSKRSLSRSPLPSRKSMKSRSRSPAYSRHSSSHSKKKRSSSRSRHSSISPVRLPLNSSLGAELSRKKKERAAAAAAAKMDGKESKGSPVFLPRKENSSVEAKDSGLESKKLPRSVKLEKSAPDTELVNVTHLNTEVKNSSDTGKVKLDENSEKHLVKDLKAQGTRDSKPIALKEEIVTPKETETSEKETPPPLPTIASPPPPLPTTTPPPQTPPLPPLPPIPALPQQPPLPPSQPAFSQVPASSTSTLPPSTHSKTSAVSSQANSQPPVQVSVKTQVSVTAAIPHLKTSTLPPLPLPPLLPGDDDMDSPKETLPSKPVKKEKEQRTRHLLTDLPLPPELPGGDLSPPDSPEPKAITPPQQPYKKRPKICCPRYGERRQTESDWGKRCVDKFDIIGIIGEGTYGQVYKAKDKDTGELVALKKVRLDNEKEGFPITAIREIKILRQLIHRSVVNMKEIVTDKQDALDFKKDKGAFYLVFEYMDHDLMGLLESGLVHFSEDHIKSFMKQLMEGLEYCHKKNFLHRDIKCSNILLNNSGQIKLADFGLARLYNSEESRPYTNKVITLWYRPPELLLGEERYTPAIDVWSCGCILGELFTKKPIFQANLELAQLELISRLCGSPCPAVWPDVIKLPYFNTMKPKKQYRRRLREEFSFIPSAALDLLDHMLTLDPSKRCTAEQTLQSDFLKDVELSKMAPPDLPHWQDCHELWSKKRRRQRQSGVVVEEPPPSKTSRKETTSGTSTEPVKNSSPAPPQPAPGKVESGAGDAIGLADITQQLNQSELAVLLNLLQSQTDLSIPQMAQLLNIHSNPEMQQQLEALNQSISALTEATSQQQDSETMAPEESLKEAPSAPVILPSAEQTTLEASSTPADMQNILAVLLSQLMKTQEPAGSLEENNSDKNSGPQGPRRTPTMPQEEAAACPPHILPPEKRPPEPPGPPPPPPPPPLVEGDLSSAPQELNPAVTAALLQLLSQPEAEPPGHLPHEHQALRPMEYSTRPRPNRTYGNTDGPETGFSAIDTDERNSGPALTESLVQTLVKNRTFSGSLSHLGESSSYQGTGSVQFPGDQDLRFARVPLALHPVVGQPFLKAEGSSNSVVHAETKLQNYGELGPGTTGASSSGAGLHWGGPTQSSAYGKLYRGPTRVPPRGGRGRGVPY
CDK12, sequence (O75909 whole entry partner): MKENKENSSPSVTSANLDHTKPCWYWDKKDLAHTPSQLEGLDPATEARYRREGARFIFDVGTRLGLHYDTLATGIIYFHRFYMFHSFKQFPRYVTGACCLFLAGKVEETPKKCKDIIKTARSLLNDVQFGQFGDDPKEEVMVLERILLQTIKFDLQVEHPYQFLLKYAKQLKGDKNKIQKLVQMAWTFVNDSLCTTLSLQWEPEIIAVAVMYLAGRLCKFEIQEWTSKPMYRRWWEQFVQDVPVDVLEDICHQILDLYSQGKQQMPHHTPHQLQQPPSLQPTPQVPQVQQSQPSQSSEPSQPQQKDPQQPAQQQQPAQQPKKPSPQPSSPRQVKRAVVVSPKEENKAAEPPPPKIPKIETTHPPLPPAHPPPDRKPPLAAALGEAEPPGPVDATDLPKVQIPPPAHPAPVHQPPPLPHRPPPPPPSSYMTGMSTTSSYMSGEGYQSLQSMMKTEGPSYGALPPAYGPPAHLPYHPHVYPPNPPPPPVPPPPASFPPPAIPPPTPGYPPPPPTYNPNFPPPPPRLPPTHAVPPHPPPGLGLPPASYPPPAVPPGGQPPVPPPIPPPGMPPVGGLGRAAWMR
In general terms: Time-resolved FRET reads energy transfer from a long-lived donor to a nearby acceptor.

The target of assay [2] is CDK13 (Homo sapiens (Human), UniProt Q14004). As to the kind of experiment: LANCE Ultra kinase assay, CDK13. It is filed as biochemical. The method, then: as §1
CDK13, sequence (Q14004 whole entry, looked up): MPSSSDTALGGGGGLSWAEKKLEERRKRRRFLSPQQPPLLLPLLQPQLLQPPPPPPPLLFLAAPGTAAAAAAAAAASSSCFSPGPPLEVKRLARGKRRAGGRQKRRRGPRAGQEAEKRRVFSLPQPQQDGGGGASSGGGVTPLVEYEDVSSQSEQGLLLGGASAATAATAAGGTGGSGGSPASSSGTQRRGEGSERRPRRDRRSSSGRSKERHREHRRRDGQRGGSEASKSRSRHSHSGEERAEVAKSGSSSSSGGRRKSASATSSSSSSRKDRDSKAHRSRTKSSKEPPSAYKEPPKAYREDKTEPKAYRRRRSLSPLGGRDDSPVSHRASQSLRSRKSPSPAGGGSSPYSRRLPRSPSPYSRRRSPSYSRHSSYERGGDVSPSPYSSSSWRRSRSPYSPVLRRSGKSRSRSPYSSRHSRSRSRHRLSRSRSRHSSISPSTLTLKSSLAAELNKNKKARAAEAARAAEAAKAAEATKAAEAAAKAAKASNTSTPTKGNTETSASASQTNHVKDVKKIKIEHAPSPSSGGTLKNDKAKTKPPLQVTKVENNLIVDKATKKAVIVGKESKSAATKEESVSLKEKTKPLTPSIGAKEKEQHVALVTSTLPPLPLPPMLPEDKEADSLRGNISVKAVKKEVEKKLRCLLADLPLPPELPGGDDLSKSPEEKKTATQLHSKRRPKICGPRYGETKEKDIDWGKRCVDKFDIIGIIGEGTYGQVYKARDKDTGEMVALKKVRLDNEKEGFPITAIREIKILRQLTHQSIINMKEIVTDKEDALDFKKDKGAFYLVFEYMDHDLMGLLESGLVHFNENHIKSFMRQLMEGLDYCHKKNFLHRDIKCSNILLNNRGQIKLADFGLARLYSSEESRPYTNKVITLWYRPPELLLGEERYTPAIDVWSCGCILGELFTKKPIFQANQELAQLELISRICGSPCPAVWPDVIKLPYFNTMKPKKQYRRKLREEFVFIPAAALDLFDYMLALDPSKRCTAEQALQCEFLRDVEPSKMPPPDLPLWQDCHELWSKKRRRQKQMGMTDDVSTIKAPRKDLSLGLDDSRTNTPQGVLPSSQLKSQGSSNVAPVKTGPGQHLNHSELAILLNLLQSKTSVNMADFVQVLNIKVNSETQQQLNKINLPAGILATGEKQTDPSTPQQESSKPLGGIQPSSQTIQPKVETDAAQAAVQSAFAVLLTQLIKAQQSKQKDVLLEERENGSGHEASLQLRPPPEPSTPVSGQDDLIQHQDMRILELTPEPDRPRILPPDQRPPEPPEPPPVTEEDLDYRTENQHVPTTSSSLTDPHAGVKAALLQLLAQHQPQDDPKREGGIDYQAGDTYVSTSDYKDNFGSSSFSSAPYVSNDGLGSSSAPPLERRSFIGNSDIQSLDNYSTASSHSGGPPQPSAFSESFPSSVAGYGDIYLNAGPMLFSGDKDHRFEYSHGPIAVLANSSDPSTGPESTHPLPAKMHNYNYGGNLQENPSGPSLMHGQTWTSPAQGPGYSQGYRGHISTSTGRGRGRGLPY
CDK13, sequence (O75909 whole entry partner, looked up): as the sequence (O75909 whole entry partner) above
Assay [3] concerns VCaP cell. The assay is described as follows: VCaP cell proliferation, CellTiter-Glo Luminescent Cell Viability Assay. Format: cell-based. Particulars: VCaP cells. The method, then:
The VCaP cell proliferation activity was determined by CellTiter-Glo Luminescent Cell Viability Assay (Promega, Madison, WI). The cells were inoculated on a 96-well plate in their respective culture mediums, and incubated in an incubator with 5% CO2 at 37° C. After incubation overnight, serial dilutions of the compound were prepared, and added into the 96-well plate. A CellTiter-Glo reagent (volume equal to the volume of the cell culture medium present in each well) was added (e.g., 100 μL of the reagent was added into 100 μL of the cell culture medium in the 96-well plate). The contents were mixed on an orbital shaker for 2 min to induce the cell lysis. The cells in the 96-well plate were incubated at room temperature for 10 min, to stabilize the luminescent signal. Luminescence was recorded: the luminescent signal for each well was acquired using an Infinite M1000 Pro plate reader (Tecan, Zurich, Switzerland), and the data was analyzed using GraphPad Prism software (GraphPad Software Inc, La Jolla, CA).

Assay [4] addresses CDK9 (Homo sapiens (Human), UniProt P50750). As to the kind of experiment: LANCE Ultra kinase assay, CDK9. It is filed as biochemical. The procedure:
as §1

Where [5] appears, read: 30 nM enzyme, 60 min pre-incubation, ULight-4E-BP1 150 nM, read-out: CDK12 IC50.
Setting [6] is: 30 nM enzyme, 60 min pre-incubation, ULight-4E-BP1 150 nM, read-out: CDK13 IC50.

CDK9, sequence (P50750 whole entry, looked up, species assumed): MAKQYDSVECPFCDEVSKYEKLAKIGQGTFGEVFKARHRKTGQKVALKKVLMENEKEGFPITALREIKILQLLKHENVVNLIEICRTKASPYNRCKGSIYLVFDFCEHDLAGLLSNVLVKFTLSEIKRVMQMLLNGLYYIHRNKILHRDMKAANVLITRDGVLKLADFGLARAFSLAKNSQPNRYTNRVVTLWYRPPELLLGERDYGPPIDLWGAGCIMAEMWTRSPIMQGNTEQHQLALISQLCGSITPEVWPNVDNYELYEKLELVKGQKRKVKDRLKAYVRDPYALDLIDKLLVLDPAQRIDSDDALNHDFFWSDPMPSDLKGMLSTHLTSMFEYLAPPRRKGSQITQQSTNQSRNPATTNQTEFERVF
CDK9, sequence (O60563 whole entry partner, looked up, species assumed): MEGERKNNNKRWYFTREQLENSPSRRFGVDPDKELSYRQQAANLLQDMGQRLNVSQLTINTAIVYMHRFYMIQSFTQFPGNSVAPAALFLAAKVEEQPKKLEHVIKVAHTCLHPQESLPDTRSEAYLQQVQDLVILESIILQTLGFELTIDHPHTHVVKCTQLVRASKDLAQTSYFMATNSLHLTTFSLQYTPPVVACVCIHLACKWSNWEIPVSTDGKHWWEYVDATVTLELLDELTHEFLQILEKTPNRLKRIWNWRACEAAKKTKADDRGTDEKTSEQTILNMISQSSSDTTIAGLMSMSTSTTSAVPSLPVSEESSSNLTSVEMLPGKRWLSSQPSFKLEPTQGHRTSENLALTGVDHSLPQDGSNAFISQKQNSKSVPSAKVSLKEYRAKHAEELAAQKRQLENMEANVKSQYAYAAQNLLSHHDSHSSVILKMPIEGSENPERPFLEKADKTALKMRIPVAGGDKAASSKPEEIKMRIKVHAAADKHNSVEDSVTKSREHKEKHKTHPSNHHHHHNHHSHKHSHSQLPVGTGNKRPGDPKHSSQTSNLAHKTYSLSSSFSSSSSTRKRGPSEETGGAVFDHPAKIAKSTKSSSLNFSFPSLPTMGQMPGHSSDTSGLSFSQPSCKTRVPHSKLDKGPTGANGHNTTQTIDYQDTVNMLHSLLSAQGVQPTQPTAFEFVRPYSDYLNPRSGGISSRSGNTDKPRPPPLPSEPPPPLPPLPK

Take `C=CC(=O)Nc1cccc(N(C(=O)NCc2ccccc2)[C@H]2CC[C@H](Nc3ccc(C#N)cn3)CC2)c1` [YJZ4156, N-(3-(3-benzyl-1-((1r,4r)-4-((5-cyanopyridin-2-yl)amino)cyclohexyl)ureido)phenyl)acrylamide]: the values for the IC50 in assay [1] (setting [5]), in assay [2] (setting [6]) and in assay [3] (Homo sapiens) were above 0.5 µM, 0.05 to 0.5 µM and 0.05 to 0.5 µM, respectively.
As to `C=CC(=O)Nc1cc(N(C(=O)NCc2ccccc2)[C@H]2CC[C@H](Nc3ccc(C#N)cn3)CC2)ccc1-c1ccc(=O)n(C)c1` [YJZ5028], the results for the IC50 in assay [1] (setting [5]), in assay [2] (setting [6]) and in assay [3] (Homo sapiens) were 0.015 to 0.05 µM, below 0.015 µM and 0.05 to 0.5 µM, respectively.
In the same order, the values of `C=CC(=O)Nc1cc(N(C(=O)NCc2ccccc2)[C@H]2CC[C@H](Nc3ccc(C#N)cn3)CC2)ccc1N1CCN(C(C)=O)CC1` [YJZ5111, N-(2-(4-acetylpiperazin-1-yl)-5-(3-benzyl-1-((1r,4r)-4-((5-cyanopyridin-2-yl)amino)cyclohexyl)ureido)phenyl)acrylamide] are 0.015 to 0.05 µM, 0.015 to 0.05 µM and 0.015 to 0.05 µM.
Regarding `C=CC(=O)Nc1cc(N(C(=O)NCc2ccccc2)[C@H]2CC[C@H](Nc3ccc(C#N)cn3)CC2)ccc1N1CCC(N(C)C)CC1` [YJZ5118, N-(5-(3-benzyl-1-((1r,4r)-4-((5-cyanopyridin-2-yl)amino)cyclohexyl)ureido)-2-(4-(dimethylamino)piperidin-1-yl)phenyl)acrylamide], the IC50 in assay [1] was 0.015 to 0.05 µM; in assay [2] it was 0.015 to 0.05 µM; in assay [4] (0.3 nM enzyme, 60 min pre-incubation, ULight-4E-BP1 150 nM), above 0.5 µM; in assay [3] (Homo sapiens) it was below 0.015 µM. Besides, in assay [1] (in words), the “inhibitory activities on CDK12/13 kinase (CDK12)” value was “strong”. Also, the “inhibitory activities on CDK12/13 kinase (CDK13)” value in assay [2] (in words) is recorded as “strong”. In addition, in assay [4] (CDK12/13 versus CDK9, in words), the “selectivity for CDK9 kinase” value is reported as “good selectivity”.
Consider `C=CC(=O)Nc1cc(N(C(=O)NCc2ccccc2)[C@H]2CC[C@H](Nc3ccc(C#N)cn3)CC2)ccc1N(C)CCN(C)C` [YJZ5125, N-(5-(3-benzyl-1-((1r,4r)-4-((5-cyanopyridin-2-yl)amino)cyclohexyl)ureido)-2-((2-(dimethylamino)ethyl)(methyl)amino)phenyl)acrylamide], for which the figures for the IC50 in assay [1] (setting [5]), in assay [2] (setting [6]) and in assay [3] (Homo sapiens) were 0.05 to 0.5 µM, 0.05 to 0.5 µM and below 0.015 µM, respectively.
In the case of `C=CC(=O)Nc1cc(N(C(=O)NCc2ccccc2)[C@H]2CC[C@H](Nc3ccc(C#N)cn3)CC2)ccc1N1CCOCC1` [YJZ5127, N-(5-(3-benzyl-1-((1r,4r)-4-((5-cyanopyridin-2-yl)amino)cyclohexyl)ureido)-2-morpholinophenyl)acrylamide], the values for the IC50 in assay [1] (setting [5]), in assay [2] (setting [6]) and in assay [3] (Homo sapiens) were 0.05 to 0.5 µM, below 0.015 µM and 0.015 to 0.05 µM, respectively.
Consider `C=CC(=O)Nc1cc(N(C(=O)NCc2ccccc2)[C@H]2CC[C@H](Nc3ccc(C#N)cn3)CC2)ccc1N1CCN(C2COC2)CC1` [YJZ6028, N-(5-(3-benzyl-1-((1r,4r)-4-((5-cyanopyridin-2-yl)amino)cyclohexyl)ureido)-2-(4-(oxetan-3-yl)piperazin-1-yl)phenyl)acrylamide], for which the concentration for half-maximal inhibition (IC50) in assay [1] (setting [5]) fell in the range of 0.05 to 0.5 µM; in assay [2] (setting [6]), 0.05 to 0.5 µM; in assay [3] (Homo sapiens), 0.015 to 0.05 µM.
Turning to `C=CC(=O)Nc1cc(N(C(=O)NCc2ccccc2)[C@H]2CC[C@H](Nc3ccc(C#N)cn3)CC2)ccc1N1CC(N(C)C)C1` [YJZ6077, N-(5-(3-benzyl-1-((1r,4r)-4-((5-cyanopyridin-2-yl)amino)cyclohexyl)ureido)-2-(3-(dimethylamino)azetidin-1-yl)phenyl)acrylamide], the IC50 in assay [1] (setting [5]), in assay [2] (setting [6]) and in assay [3] (Homo sapiens) was 0.05 to 0.5 µM in each case.
On to `C=CC(=O)Nc1cc(N(C(=O)NCc2ccccc2)[C@H]2CC[C@H](Nc3ccc(C#N)cn3)CC2)ccc1N1CCC(N(C)C)C1` (stereo partly shown) [YJZ6082], for which the IC50 in assay [1] (setting [5]) is above 0.5 µM; in assay [2] (setting [6]), 0.05 to 0.5 µM; in assay [3] (Homo sapiens) it was 0.05 to 0.5 µM.
Turning to `C=CC(=O)Nc1cc(N(C(=O)NCc2ccccc2)[C@H]2CC[C@H](Nc3ccc(C#N)cn3)CC2)ccc1N1CCN(C)[C@@H](C)C1` [YJZ6093], the values for the IC50 in assay [1] (setting [5]), in assay [2] (setting [6]) and in assay [3] (Homo sapiens) were 0.015 to 0.05 µM, 0.015 to 0.05 µM and below 0.015 µM, respectively.
As to `C=CC(=O)Nc1cc(N(C(=O)NCc2ccccc2)[C@H]2CC[C@H](Nc3ccc(C#N)cn3)CC2)ccc1N1C[C@H]2C[C@@H]1CN2C` [YJZ6096, N-(5-(3-benzyl-1-((1r,4R)-4-((5-cyanopyridin-2-yl)amino)cyclohexyl)ureido)-2-((1R,4R)-5-methyl-2,5-diazabicyclo[2.2.1]heptan-2-yl)phenyl)acrylamide], the IC50 was 0.015 to 0.05 µM in assay [1] (setting [5]), 0.015 to 0.05 µM in assay [2] (setting [6]) and 0.05 to 0.5 µM in assay [3] (Homo sapiens).
With `C=CC(=O)Nc1cc(N(C(=O)NCc2ccccc2)[C@H]2CC[C@H](Nc3ccc(C#N)cn3)CC2)ccc1N1CCN[C@@H](C)C1` [YJZ8027], the IC50 in assay [1] (setting [5]) was 0.015 to 0.05 µM; in assay [2] (setting [6]), below 0.015 µM; in assay [3] (Homo sapiens), 0.015 to 0.05 µM.
On to `C=CC(=O)Nc1cc(N(C(=O)NCc2ccccc2)[C@H]2CC[C@H](Nc3ccc(C#N)cn3)CC2)cc(F)c1N1CCN(C)[C@@H](C)C1` [YJZ8070], for which the IC50 in assay [1] (setting [5]) was 0.05 to 0.5 µM; in assay [2] (setting [6]), 0.015 to 0.05 µM; in assay [3], below 0.015 µM.
